Experimental data from PubChem BioAssay AID248 (DTP/NCI, 2004).
Values joined by “and” are separate entries in the source; they are usually repeats but may differ in a detail not shown here. Equal values may be shown once. Toxic doses and inconclusive results are not listed. Rule as the data show it: active = T/C of 150% or more; inactive = T/C below 125%.

System: L1210 leukemia ip in BDF1 mice, survival T/C
Assay: NCI In Vivo Anticancer Drug Screen. Data for tumor model L1210 Leukemia (intraperitoneal) in B6D2F1 (BDF1) mice
Details: endpoint: mean survival time, higher = longer survival
Outline: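 Each compound was tested against a transplantable tumor grown in mice. The endpoint was survival, with treated animals benchmarked against vehicle controls as a simple ratio.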

Measured: T/C

Nc1ccc(OC(=O)Oc2ccc(N)cc2)cc1
inactive: dose: 5.0 mg/kg/injection, schedule: Q01DX Z (iv), vehicle: saline 101 % of control | dose: 6.25 mg/kg/injection, schedule: Q#A X Z (oral), vehicle: saline 106 % of control | dose: 10.0 mg/kg/injection, schedule: Q01DX Z (iv), vehicle: saline 101 % of control | dose: 12.5 mg/kg/injection, schedule: Q01DX Z (oral), vehicle: saline 104 % of control | dose: 12.5 mg/kg/injection, schedule: Q#A X Z (oral), vehicle: saline 108 % of control | dose: 16.0 mg/kg/injection, schedule: Q07DX003 (oral), vehicle: saline 103 % of control | dose: 20.0 mg/kg/injection, schedule: Q01DX Z (iv), vehicle: saline 100 % of control | dose: 25.0 mg/kg/injection, schedule: Q01DX Z (oral), vehicle: saline 104 % of control | dose: 25.0 mg/kg/injection, schedule: Q#A X Z (oral), vehicle: saline 112 % of control | dose: 31.0 mg/kg/injection, schedule: Q07DX003 (oral), vehicle: saline 98 % of control | dose: 37.0 mg/kg/injection, schedule: Q01DX Z (ip), vehicle: carboxymethylcellulose (CMC) 100 % of control | dose: 37.5 mg/kg/injection, schedule: Q01DX009 (ip), vehicle: other 101 % of control | dose: 37.5 mg/kg/injection, schedule: Q01DX017 (ip), vehicle: other 101 % of control | dose: 37.5 mg/kg/injection, schedule: Q#A X018 (ip), vehicle: other 97 % of control | dose: 38.0 mg/kg/injection, schedule: Q01DX Z (ip), vehicle: carboxymethylcellulose (CMC) 98 % of control | dose: 40.0 mg/kg/injection, schedule: Q01DX Z (iv), vehicle: saline 100 % of control | dose: 40.0 mg/kg/injection, schedule: Q#A X Z (ip), vehicle: saline 111 % of control | dose: 50.0 mg/kg/injection, schedule: Q01DX005 (ip), vehicle: saline 101 % of control | dose: 50.0 mg/kg/injection, schedule: Q01DX006 (iv), vehicle: saline 110 % of control | dose: 50.0 mg/kg/injection, schedule: Q01DX009 (ip), vehicle: saline 104 % of control | dose: 50.0 mg/kg/injection, schedule: Q01DX015 (ip), vehicle: other 115 % of control | dose: 50.0 mg/kg/injection, schedule: Q01DX Z (im), vehicle: saline 104 % of control | dose: 50.0 mg/kg/injection, schedule: Q01DX Z (oral), vehicle: saline 112 % of control | dose: 50.0 mg/kg/injection, schedule: Q01DX Z (sc), vehicle: saline 112 % of control | dose: 50.0 mg/kg/injection, schedule: Q## X003 (ip), vehicle: saline 102 % of control | dose: 50.0 mg/kg/injection, schedule: Q## X024 (ip), vehicle: saline 101 % of control | dose: 53.0 mg/kg/injection, schedule: Q01DX Z (ip), vehicle: carboxymethylcellulose (CMC) 89 % of control and 113 % of control | dose: 53.0 mg/kg/injection, schedule: Q01DX Z (ip), vehicle: saline 102 % of control | dose: 63.0 mg/kg/injection, schedule: Q07DX003 (oral), vehicle: saline 106 % of control | dose: 74.0 mg/kg/injection, schedule: Q01DX Z (ip), vehicle: carboxymethylcellulose (CMC) 113 % of control | dose: 75.0 mg/kg/injection, schedule: Q01DX009 (ip), vehicle: other 104 % of control | dose: 75.0 mg/kg/injection, schedule: Q01DX017 (ip), vehicle: other 104 % of control | dose: 75.0 mg/kg/injection, schedule: Q01DX Z (ip), vehicle: carboxymethylcellulose (CMC) 102 % of control | dose: 75.0 mg/kg/injection, schedule: Q#A X018 (ip), vehicle: other 118 % of control | dose: 80.0 mg/kg/injection, schedule: Q01DX012 (oral), vehicle: saline 94 % of control | dose: 80.0 mg/kg/injection, schedule: Q01DX Z (ip), vehicle: carboxymethylcellulose (CMC) 93 % of control | dose: 80.0 mg/kg/injection, schedule: Q01DX Z (ip), vehicle: saline 113 % of control | dose: 100.0 mg/kg/injection, schedule: Q01DX001 (ip), vehicle: saline 98 % of control | dose: 100.0 mg/kg/injection, schedule: Q01DX005 (ip), vehicle: saline 92 % of control | dose: 100.0 mg/kg/injection, schedule: Q01DX005 (oral), vehicle: saline 116 % of control | dose: 100.0 mg/kg/injection, schedule: Q01DX006 (iv), vehicle: saline 114 % of control | dose: 100.0 mg/kg/injection, schedule: Q01DX009 (oral), vehicle: saline 116 % of control | dose: 100.0 mg/kg/injection, schedule: Q01DX015 (ip), vehicle: clinical formulation 118 % of control | dose: 100.0 mg/kg/injection, schedule: Q## X003 (ip), vehicle: saline 106 % of control | dose: 100.0 mg/kg/injection, schedule: Q## X003 (oral), vehicle: saline 101 % of control | dose: 100.0 mg/kg/injection, schedule: Q## X008 (ip), vehicle: saline 101 % of control | dose: 120.0 mg/kg/injection, schedule: Q01DX012 (oral), vehicle: saline 105 % of control | dose: 120.0 mg/kg/injection, schedule: Q01DX Z (ip), vehicle: carboxymethylcellulose (CMC) 97 % of control | dose: 120.0 mg/kg/injection, schedule: Q01DX Z (ip), vehicle: saline 108 % of control and 117 % of control | dose: 125.0 mg/kg/injection, schedule: Q07DX003 (oral), vehicle: saline 106 % of control | dose: 135.0 mg/kg/injection, schedule: Q#A X Z (ip), vehicle: saline 102 % of control | dose: 149.0 mg/kg/injection, schedule: Q01DX Z (ip), vehicle: carboxymethylcellulose (CMC) 105 % of control | dose: 150.0 mg/kg/injection, schedule: Q01DX001 (ip), vehicle: other 109 % of control | dose: 150.0 mg/kg/injection, schedule: Q01DX Z (ip), vehicle: carboxymethylcellulose (CMC) 113 % of control | dose: 180.0 mg/kg/injection, schedule: Q01DX Z (ip), vehicle: carboxymethylcellulose (CMC) 98 % of control | dose: 180.0 mg/kg/injection, schedule: Q01DX Z (ip), vehicle: saline 105 % of control | dose: 180.0 mg/kg/injection, schedule: Q01DX Z (oral), vehicle: saline 110 % of control | dose: 200.0 mg/kg/injection, schedule: Q01DX001 (ip), vehicle: saline 110 % of control | dose: 200.0 mg/kg/injection, schedule: Q01DX005 (oral), vehicle: saline 110 % of control | dose: 200.0 mg/kg/injection, schedule: Q01DX008 (oral), vehicle: saline 93 % of control | dose: 200.0 mg/kg/injection, schedule: Q01DX015 (ip), vehicle: clinical formulation 108 % of control | dose: 200.0 mg/kg/injection, schedule: Q01DX015 (ip), vehicle: other 100 % of control | dose: 200.0 mg/kg/injection, schedule: Q## X003 (ip), vehicle: saline 98 % of control | dose: 200.0 mg/kg/injection, schedule: Q## X003 (oral), vehicle: saline 106 % of control | dose: 200.0 mg/kg/injection, schedule: Q## X008 (ip), vehicle: saline 104 % of control | dose: 200.0 mg/kg/injection, schedule: Q## X024 (ip), vehicle: saline 97 % of control | dose: 240.0 mg/kg/injection, schedule: Q03DX Z (ip), vehicle: saline 110 % of control | dose: 250.0 mg/kg/injection, schedule: Q01DX001 (oral), vehicle: saline 115 % of control | dose: 250.0 mg/kg/injection, schedule: Q03DX006 (oral), vehicle: saline 108 % of control | dose: 250.0 mg/kg/injection, schedule: Q07DX003 (oral), vehicle: saline 113 % of control | dose: 267.0 mg/kg/injection, schedule: Q## X024 (ip), vehicle: saline 106 % of control | dose: 267.0 mg/kg/injection, schedule: Q## X024 (oral), vehicle: saline 110 % of control | dose: 270.0 mg/kg/injection, schedule: Q01DX Z (ip), vehicle: carboxymethylcellulose (CMC) 101 % of control | dose: 270.0 mg/kg/injection, schedule: Q01DX Z (ip), vehicle: other 113 % of control | dose: 270.0 mg/kg/injection, schedule: Q01DX Z (ip), vehicle: saline 91 % of control | dose: 300.0 mg/kg/injection, schedule: Q01DX001 (ip), vehicle: other 103 % of control | dose: 360.0 mg/kg/injection, schedule: Q03DX Z (ip), vehicle: saline 110 % of control | dose: 400.0 mg/kg/injection, schedule: Q01DX001 (ip), vehicle: saline 97 % of control | dose: 400.0 mg/kg/injection, schedule: Q01DX006 (iv), vehicle: saline 118 % of control | dose: 400.0 mg/kg/injection, schedule: Q01DX008 (oral), vehicle: saline 92 % of control | dose: 400.0 mg/kg/injection, schedule: Q## X003 (ip), vehicle: saline 111 % of control | dose: 400.0 mg/kg/injection, schedule: Q## X003 (oral), vehicle: saline 105 % of control | dose: 400.0 mg/kg/injection, schedule: Q## X008 (ip), vehicle: saline 101 % of control | dose: 400.0 mg/kg/injection, schedule: Q## X024 (oral), vehicle: saline 102 % of control and 105 % of control | dose: 405.0 mg/kg/injection, schedule: Q01DX Z (ip), vehicle: other 116 % of control | dose: 500.0 mg/kg/injection, schedule: Q01DX001 (oral), vehicle: saline 110 % of control | dose: 500.0 mg/kg/injection, schedule: Q03DX006 (oral), vehicle: saline 115 % of control | dose: 500.0 mg/kg/injection, schedule: Q07DX003 (oral), vehicle: saline 111 % of control | dose: 540.0 mg/kg/injection, schedule: Q03DX Z (ip), vehicle: saline 115 % of control | dose: 560.0 mg/kg/injection, schedule: Q07DX Z (ip), vehicle: saline 110 % of control | dose: 600.0 mg/kg/injection, schedule: Q## X024 (oral), vehicle: saline 115 % of control | dose: 720.0 mg/kg/injection, schedule: Q01DX Z (oral), vehicle: saline 106 % of control | dose: 800.0 mg/kg/injection, schedule: Q01DX008 (oral), vehicle: saline 116 % of control | dose: 800.0 mg/kg/injection, schedule: Q## X003 (oral), vehicle: saline 102 % of control | dose: 1000.0 mg/kg/injection, schedule: Q01DX001 (oral), vehicle: saline 110 % of control | dose: 1000.0 mg/kg/injection, schedule: Q03DX006 (oral), vehicle: saline 114 % of control | dose: 2000.0 mg/kg/injection, schedule: Q01DX001 (oral), vehicle: saline 92 % of control
